# Like-named read-outs stand apart in the source and are kept apart here.
# Test system: AP-1 induced transcriptional activity
# Test: Cellular Transrepressional Assay (AP-1 luciferase reporter in A549 cell, PMA activated)
# Format: cell-based
# Conditions: pAP-1-Luc; for Emax / AP-1 Max % inh (Cellular Transrepression Assay): maximum inhibition, PMA; for Emax: read-out: AP-1 Max % inh (Cellular Transrepression Assay); for EC50: 10 ng/ml PMA, 7 hours, read-out: AP-1 EC50, nM (Cellular Transrepression Assay)
# Procedure: Cellular Transrepressional Assay
# To measure the ability of test molecules to inhibit AP-1 induced transcriptional activity we utilized an A549 cell which was stably transfected with a plasmid containing 7×AP-1 DNA binding sites (pAP-1-Luc plasmid, Stratagene Co. La Jolla, Calif.) followed by the gene for luciferase. Cells were activated with 10 ng/ml of phorbol myristic acid (PMA) plus or minus test molecules for 7 hours. After 7 hours a luciferase reagent was added to measure luciferase enzymatic activity in the cell. After a 10 minute incubation of luciferase reagent with cells, luminescence was measured in a TopCount luminescence counter. Repression of AP-1 activity was calculated as the percentage decrease in the signal induced by PMA alone. Test molecules were analyzed in the concentration range from 0.1 nM to 40 μM. EC50s were determined by using standard curve fitting methods such as Excel fit (Microsoft Co.). An EC50 is the test molecule concentration at which there is a 50% repression of the maximal inhibition of transcription, i.e. a 50% reduction of AP-1 activity.
SMILES,"Emax (Homo sapiens, A549, 7 h)",EC50,"EC50 (Homo sapiens, A549, 7 h)",AP-1 Max % inh (Cellular Transrepression Assay)
"CC(C(=O)Nc1nncs1)C(c1ccccc1)c1ccc(-c2ccc(C(=O)N(C)C)c(Cl)c2)s1 (single isomer, unassigned) [Example 148, 2-chloro-N,N-dimethyl-4-(5-(2-methyl-3-oxo-1-phenyl-3-(1,3,4-thiadiazol-2-ylamino)propyl)-2-thienyl)benzamide]",51.5%,24.6 nM,–,–
"CC(C)Cc1ccc(-c2ccc([C@@H](c3cccc(F)c3)[C@@H](C)C(=O)Nc3nncs3)s2)cc1 [Example 114, (2R,3R)-3-(3-fluorophenyl)-3-(5-(4-isobutylphenyl)-2-thienyl)-2-methyl-N-1,3,4-thiadiazol-2-ylpropanamide]",36.6%,–,45.5 nM,–
"CC(C(=O)Nc1nncs1)C(c1ccccc1)c1ccc(-c2ccc(C(=O)N3CCOCC3)cc2)s1 (single isomer, unassigned) [Example 144, 2-methyl-3-(5-(4-(4-morpholinylcarbonyl)phenyl)-2-thienyl)-3-phenyl-N-1,3,4-thiadiazol-2-ylpropanamide]",–,5.98 nM,–,49.49 % inh
"CCN(CC)C(=O)c1ccc(-c2ccc([C@H](c3cccc(F)c3)C(C)(C)C(=O)Nc3nncs3)s2)cc1Cl [Example 70, 2-chloro-N,N-diethyl-4-(5-((1R)-1-(3-fluorophenyl)-2,2-dimethyl-3-oxo-3-(1,3,4-thiadiazol-2-ylamino)propyl)-2-thienyl)benzamide]",23%,–,833 nM,–
"CC(C)(C(=O)Nc1nncs1)[C@@H](c1cccc(F)c1)c1ccc(-c2ccc(C(=O)N3CCOCC3)c(Cl)c2)s1 [Example 67, (3R)-3-(5-(3-chloro-4-(4-morpholinylcarbonyl)phenyl)-2-thienyl)-3-(3-fluorophenyl)-2,2-dimethyl-N-1,3,4-thiadiazol-2-ylpropanamide]",51.2%,–,12.8 nM,–
"C[C@@H](C(=O)Nc1nncs1)[C@H](c1cccc(F)c1)c1ccc(-c2ccc(C(=O)N(C)C)c(F)c2)s1 [Example 112, 2-fluoro-4-(5-((1R,2R)-1-(3-fluorophenyl)-2-methyl-3-oxo-3-(1,3,4-thiadiazol-2-ylamino)propyl)-2-thienyl)-N,N-dimethylbenzamide]",54%,–,18.5 nM,–
"CC(C(=O)Nc1nncs1)C(c1ccccc1)c1ccc(-c2ccc(C(=O)N3CCOCC3)cc2)s1 (single isomer, unassigned) [Example 145, 2-methyl-3-(5-(4-(4-morpholinylcarbonyl)phenyl)-2-thienyl)-3-phenyl-N-1,3,4-thiadiazol-2-ylpropanamide]",–,64.6 nM,–,25.24 % inh
"C[C@@H](C(=O)Nc1nncs1)[C@H](c1ccccc1)c1ccc(-c2ccc(C(=O)N(C)C)cc2)s1 [Example 140, N,N-dimethyl-4-(5-((1R,2R)-2-methyl-3-oxo-1-phenyl-3-(1,3,4-thiadiazol-2-ylamino)propyl)-2-thienyl)benzamide]",54.1%,–,15.2 nM,–
"CCN(C)C(=O)c1ccc(-c2ccc([C@H](c3cccc(F)c3)C(C)(C)C(=O)Nc3nncs3)s2)cc1F [Example 80, N-ethyl-2-fluoro-4-(5-((1R)-1-(3-fluorophenyl)-2,2-dimethyl-3-oxo-3-(1,3,4-thiadiazol-2-ylamino)propyl)-2-thienyl)-N-methylbenzamide]",33.6%,–,34.7 nM,–
"CCN(C)C(=O)c1ccc(-c2ccc([C@@H](c3cccc(F)c3)[C@@H](C)C(=O)Nc3nncs3)s2)cc1 [Example 107, N-ethyl-4-(5-((1R,2R)-1-(3-fluorophenyl)-2-methyl-3-oxo-3-(1,3,4-thiadiazol-2-ylamino)propyl)-2-thienyl)-N-methylbenzamide]",52.5%,–,15.9 nM,–
"C[C@@H](C(=O)Nc1nncs1)[C@H](c1cccc(F)c1)c1ccc(-c2ccc(C(=O)N3CCOCC3)cc2)s1 [Example 109, (2R,3R)-3-(3-fluorophenyl)-2-methyl-3-(5-(4-(4-morpholinylcarbonyl)phenyl)-2-thienyl)-N-1,3,4-thiadiazol-2-ylpropanamide]",57.5%,–,8.39 nM,–
"CC(C)Oc1ccc(-c2ccc(C(c3cccc(F)c3)C(C)(C)C(=O)Nc3nncs3)s2)cc1 (stereo not shown) [Example 38, 3-(3-fluorophenyl)-3-(5-(4-isopropoxyphenyl)-2-thienyl)-2,2-dimethyl-N-1,3,4-thiadiazol-2-ylpropanamide]",23.1%,–,8.43 nM,–
"CC(C(=O)Nc1nncs1)C(c1ccccc1)c1ccc(-c2ccc(C(=O)N(C)C)cc2)s1 (single isomer, unassigned) [Example 147, N,N-dimethyl-4-(5-(2-methyl-3-oxo-1-phenyl-3-(1,3,4-thiadiazol-2-ylamino)propyl)-2-thienyl)benzamide]",–,168 nM,–,48.44 % inh
"CCN(C)C(=O)c1ccc(-c2ccc(C(c3ccccc3)C(C)(C)C(=O)Nc3nncs3)s2)cc1 (stereo not shown) [Example 50, 4-(5-(2,2-dimethyl-3-oxo-1-phenyl-3-(1,3,4-thiadiazol-2-ylamino)propyl)-2-thienyl)-N-ethyl-N-methylbenzamide]",39.6%,–,13.2 nM,–
"CN(C)C(=O)c1ccc(-c2ccc(C(c3ccccc3)C(C)(C)C(=O)Nc3nncs3)s2)cc1Cl (stereo not shown) [Example 43, 2-Chloro-4-(5-(2,2-dimethyl-3-oxo-1-phenyl-3-(1,3,4-thiadiazol-2-ylamino)propyl)-2-thienyl)-N,N-dimethylbenzamide]",38.4%,10.7 nM,–,–
"CCN(C)C(=O)c1ccc(-c2ccc(C(c3cccc(F)c3)C(C)C(=O)Nc3nncs3)s2)cc1 (single isomer, unassigned) [Example 98, N-ethyl-4-(5-(1-(3-fluorophenyl)-2-methyl-3-oxo-3-(1,3,4-thiadiazol-2-ylamino)propyl)-2-thienyl)-N-methylbenzamide]",55.3%,15.8 nM,–,–
"CC(C)(C(=O)Nc1nncs1)[C@@H](c1cccc(F)c1)c1ccc(-c2ccc(C(=O)N3CCC(F)(F)C3)cc2)s1 [Example 79, (3R)-3-(5-(4-((3,3-difluoro-1-pyrrolidinyl)carbonyl)phenyl)-2-thienyl)-3-(3-fluorophenyl)-2,2-dimethyl-N-1,3,4-thiadiazol-2-ylpropanamide]",42.6%,–,30.3 nM,–
"CC(C)(C(=O)Nc1nncs1)C(c1ccccc1)c1ccc(-c2ccc(C(=O)N3CCOCC3)cc2)s1 (stereo not shown) [Example 45, 2,2-dimethyl-3-(5-(4-(4-morpholinylcarbonyl)phenyl)-2-thienyl)-3-phenyl-N-1,3,4-thiadiazol-2-ylpropanamide]",51%,–,5.88 nM,–
"CC(C)(C(=O)Nc1nncs1)C(c1ccccc1)c1ccc(-c2ccc(C(=O)N3CCCC3)cc2)s1 (stereo not shown) [Example 47, 2,2-dimethyl-3-phenyl-3-(5-(4-(1-pyrrolidinylcarbonyl)phenyl)-2-thienyl)-N-1,3,4-thiadiazol-2-ylpropanamide]",39.9%,–,3.71 nM,–
"C[C@@H](C(=O)Nc1nncs1)[C@H](c1cccc(F)c1)c1ccc(-c2ccc(C(=O)N3CCCC3)c(Cl)c2)s1 [Example 115, (2R,3R)-3-(5-(3-chloro-4-(1-pyrrolidinylcarbonyl)phenyl)-2-thienyl)-3-(3-fluorophenyl)-2-methyl-N-1,3,4-thiadiazol-2-ylpropanamide]",39.1%,–,31 nM,–
